Experimental data as given in ChEMBL document CHEMBL1145473, “Efficacy of the de novo-derived antimicrobial peptide WLBU2 against oral bacteria” (2007).
The source made the active and inactive calls. The calls are words filed in the database; no cut-off is given here.

Tests used:
Fusobacterium nucleatum [1] = assay: Antimicrobial activity against Fusobacterium nucleatum biofilms assessed as decrease in viable cell count at 2 uM after 30 mins; format: functional, organism-based
Fusobacterium nucleatum [2] = assay: Antimicrobial activity against Fusobacterium nucleatum ATCC 25586 by broth dilution assay; format: functional
Fusobacterium nucleatum [3] = assay: Antimicrobial activity against Fusobacterium nucleatum ATCC 49256 by broth dilution assay; format: functional
Fusobacterium nucleatum [4] = assay: Antimicrobial activity against Fusobacterium nucleatum planktonic cells at 2 uM after 30 mins; format: functional, organism-based
Porphyromonas gingivalis = assay: Antimicrobial activity against Porphyromonas gingivalis W83 ATCC BAA0308 by broth dilution assay; format: functional
Streptococcus gordonii [5] = assay: Antimicrobial activity against Streptococcus gordonii DL1 ATCC 49818 planktonic cells at 25 uM after 30 mins; format: functional, organism-based
Pseudomonas aeruginosa = assay: Antimicrobial activity against Pseudomonas aeruginosa ATCC 47085 by broth dilution assay; format: functional
Streptococcus gordonii [6] = assay: Antimicrobial activity against Streptococcus gordonii DL1 ATCC 49818 by broth dilution assay; format: functional
Streptococcus gordonii [7] = assay: Antimicrobial activity against Streptococcus gordonii DL1 ATCC 49818 biofilms assessed as decrease in viable cell count at 25 uM after 30 mins; format: functional, organism-based

Row | Compound | Activity (Fusobacterium nucleatum [1]) | MBC (Fusobacterium nucleatum [2]) | MBC (Fusobacterium nucleatum [3]) | Activity (Fusobacterium nucleatum [4]) | MBC (Porphyromonas gingivalis) | Activity (Streptococcus gordonii [5]) | MBC (Pseudomonas aeruginosa) | MBC (Streptococcus gordonii [6]) | Activity (Streptococcus gordonii [7])
1 | CC1(C)S[C@@H]2[C@H](NC(=O)[C@H](N)c3ccc(O)cc3)C(=O)N2[C@H]1C(=O)O | inactive | – | – | – | – | – | – | – | –
2 | Cc1ncc([N+](=O)[O-])n1CCO | inactive | – | – | – | – | – | – | – | –
3 | H-RRWVRRVRRWVRRVVRVVRRWVRR-OH | – | 1 µM | 1 µM | Active | 50 µM | Active | 1 µM | 12.5 µM | Active
